Read-outs that look alike come from different tables or passages of the source.
Test system: Gli1-mediated transcription
Assay: Gli1-mediated transcriptional luciferase reporter assay
Type: cell-based
Settings: Shh-LIGHT2 cells, antagonist mode, purmorphamine 1.5 μM stimulation, 24 h
Procedure: Gli1-mediated transcriptional luciferase reporter assay was performed using Shh-LIGHT2 cells in order to evaluate the effects on activation and inhibition of Gli1-mediated transcription by the compounds of the disclosure. Brief assay procedure is provided below. […] Shh-LIGHT2 cells were harvested from about 80% confluent 10-cm dish using 0.25% Trypsin-EDTA solution. Medium was removed, and cells were washed with 5 mL DPBS and aspirated. Then, 1 mL 0.25% Trypsin-EDTA solution was added to a 10-cm dish. The dish was placed in the incubator for 1-3 minutes, or until cells have detached. 3 mL of cell growth medium (DMEM, 10% FBS, 1% PenStrep, 1% sodium pyruvate, and 1% GlutaMax) was added to the 10-cm dish, and the contents were transferred to a conical tube. […] The cell assay plate was removed from incubator after cells reached confluency. The culture medium was then manually removed from the cell plates, and the plates were centrifuged at 200 rpm for 30 seconds. […] After 30 min incubation of antagonist, cells were stimulated with agonist (purmorphamine, 5 μL, 1.5 μM final), then incubate for 24 h at 37° C./5% CO2. […] Luciferase assay: After incubation, the cell assay plate was allowed to acclimate to room temperature. Then, 20 μL of Duo-Glo® Luciferase Reagent (Promega) was added to each well of cell assay plate. The plate was briefly spun down, mixed, and incubated for 30 minutes at room temperature. The cell plate was read using luminometer for firefly luminescence activity. Then, 20 μL of Duo-Glo® Step&Glo® Reagent (Promega) was added to each well of cell assay plate. The plate was briefly spun down, mixed, and incubated for 30 minutes at room temperature. The cell plate was read using luminometer for Renilla luminescence activity. Ratio of firefly: Renilla luminescence was calculated for each well. The compound well ratio was normalized to the ratio from a control well.

[1] = firefly luminescence, read-out: Gli1 IC50 firefly
[2] = ratio of firefly:Renilla luminescence, read-out: Gli1 IC50 firefly:Renilla ratio

Structure (SMILES)	IC50 [1]	IC50 [2]
Fc1ccccc1-c1nc2c([nH]1)CN(C1CCc3cccc(F)c3C1)CC2 (centres unmarked) [Example 11, 5-(8-fluoro-1,2,3,4-tetrahydronaphthalen-2-yl)-2-(2-fluorophenyl)-4,5,6,7-tetrahydro-3H-imidazo[4,5-c]pyridine]	1000 to 50000 nM	1000 to 50000 nM
O[C@@H]1Cc2ccccc2C[C@H]1N1CCc2nc(-c3ccccc3Cl)[nH]c2C1 [Example 20, (2R,3R)-3-(2-(2-chlorophenyl)-3,4,6,7-tetrahydro-5H-imidazo[4,5-c]pyridin-5-yl)-1,2,3,4-tetrahydronaphthalen-2-ol]	1000 to 50000 nM	1000 to 50000 nM
Clc1ccccc1-c1nc2c([nH]1)CN([C@@H]1CCc3cccc(Cl)c3C1)CC2 [Example 1-R, (R)-5-(8-chloro-1,2,3,4-tetrahydronaphthalen-2-yl)-2-(2-chlorophenyl)-4,5,6,7-tetrahydro-3H-imidazo[4,5-c]pyridine]	100 to 490 nM	100 to 490 nM
Clc1ccccc1-c1nc2c([nH]1)CN([C@H]1CCc3cccc(Cl)c3C1)CC2 [Example 1-S, (S)-5-(8-chloro-1,2,3,4-tetrahydronaphthalen-2-yl)-2-(2-chlorophenyl)-4,5,6,7-tetrahydro-3H-imidazo[4,5-c]pyridine]	100 to 490 nM	100 to 490 nM
Clc1ccccc1-c1nc2c([nH]1)CN(C1Cc3cccc(Cl)c3C1)CC2 (racemic) [Example 12, 5-(4-chloro-2,3-dihydro-1H-inden-2-yl)-2-(2-chlorophenyl)-4,5,6,7-tetrahydro-3H-imidazo[4,5-c]pyridine]	100 to 490 nM	100 to 490 nM
Clc1ccc2c(c1)CC(N1CCc3nc(-c4ccccc4Cl)[nH]c3C1)CO2 (centres unmarked) [Example 3, 5-(6-chlorochroman-3-yl)-2-(2-chlorophenyl)-4,5,6,7-tetrahydro-3H-imidazo[4,5-c]pyridine]	500 to 990 nM	500 to 990 nM
COc1cccc2c1CC(N1CCc3nc(-c4ccccc4F)[nH]c3C1)CC2 (centres unmarked) [Example 9, 2-(2-fluorophenyl)-5-(8-methoxy-1,2,3,4-tetrahydronaphthalen-2-yl)-4,5,6,7-tetrahydro-3H-imidazo[4,5-c]pyridine]	500 to 990 nM	1000 to 50000 nM
Cn1c(-c2ccccc2Cl)nc2c1CC(N1Cc3cccc(Cl)c3C1)CC2 (centres unmarked) [Example 189, 6-(4-chloroisoindolin-2-yl)-2-(2-chlorophenyl)-1-methyl-4,5,6,7-tetrahydro-1H-benzo[d]imidazole]	< 100 nM	< 100 nM
Clc1cc(Cl)c2c(c1)CCC(N1CCc3nc(-c4ccccc4Cl)[nH]c3C1)C2 (centres unmarked) [Example 25, 2-(2-chlorophenyl)-5-(6,8-dichloro-1,2,3,4-tetrahydronaphthalen-2-yl)-4,5,6,7-tetrahydro-3H-imidazo[4,5-c]pyridine]	1000 to 50000 nM	1000 to 50000 nM
COc1ccc2c(c1)CC(N1CCc3nc(-c4ccccc4Cl)[nH]c3C1)CC2 (centres unmarked) [Example 15, 2-(2-chlorophenyl)-5-(7-methoxy-1,2,3,4-tetrahydronaphthalen-2-yl)-4,5,6,7-tetrahydro-3H-imidazo[4,5-c]pyridine]	100 to 490 nM	100 to 490 nM
Clc1ccc2c(c1)CC(N1CCc3nc(-c4ccc(Br)cc4Cl)[nH]c3C1)CC2 (centres unmarked) [Example 29, 2-(4-bromo-2-chlorophenyl)-5-(7-chloro-1,2,3,4-tetrahydronaphthalen-2-yl)-4,5,6,7-tetrahydro-3H-imidazo[4,5-c]pyridine]	500 to 990 nM	100 to 490 nM
COc1ccc(-c2nc3c([nH]2)CN(C2CCc4ccc(Cl)cc4C2)CC3)c(Cl)c1 (centres unmarked) [Example 23, 5-(7-chloro-1,2,3,4-tetrahydronaphthalen-2-yl)-2-(2-chloro-4-methoxyphenyl)-4,5,6,7-tetrahydro-3H-imidazo[4,5-c]pyridine]	< 100 nM	< 100 nM
Clc1ccc2c(c1)CC(N1CCc3nc(-c4ccccc4Br)[nH]c3C1)CC2 (centres unmarked) [Example 28, 2-(2-bromophenyl)-5-(7-chloro-1,2,3,4-tetrahydronaphthalen-2-yl)-4,5,6,7-tetrahydro-3H-imidazo[4,5-c]pyridine]	100 to 490 nM	100 to 490 nM
Clc1ccc2c(c1)CC(N1CCc3nc(-c4cccc(Cl)c4Cl)[nH]c3C1)CC2 (centres unmarked) [Example 21, 5-(7-chloro-1,2,3,4-tetrahydronaphthalen-2-yl)-2-(2,3-dichlorophenyl)-4,5,6,7-tetrahydro-3H-imidazo[4,5-c]pyridine]	500 to 990 nM	500 to 990 nM
Fc1ccc(-c2nc3c([nH]2)CN(C2CCc4ccc(Cl)cc4C2)CC3)c(Cl)c1 (centres unmarked) [Example 22, 5-(7-chloro-1,2,3,4-tetrahydronaphthalen-2-yl)-2-(2-chloro-4-fluorophenyl)-4,5,6,7-tetrahydro-3H-imidazo[4,5-c]pyridine]	500 to 990 nM	100 to 490 nM
Fc1cc2c(cc1F)CC(N1CCc3nc(-c4ccccc4F)[nH]c3C1)CC2 (centres unmarked) [Example 72, 5-(6,7-difluoro-1,2,3,4-tetrahydronaphthalen-2-yl)-2-(2-fluorophenyl)-4,5,6,7-tetrahydro-3H-imidazo[4,5-c]pyridine]	1000 to 50000 nM	1000 to 50000 nM
COc1cccc2c1CCC(N1CCc3nc(-c4ccccc4Cl)[nH]c3C1)C2 (centres unmarked) [Example 10, 2-(2-chlorophenyl)-5-(5-methoxy-1,2,3,4-tetrahydronaphthalen-2-yl)-4,5,6,7-tetrahydro-3H-imidazo[4,5-c]pyridine]	100 to 490 nM	100 to 490 nM
Fc1ccccc1-c1nc2c([nH]1)CN(C1CCc3ncccc3C1)CC2 (centres unmarked) [Example 55, 6-(2-(2-fluorophenyl)-3,4,6,7-tetrahydro-5H-imidazo[4,5-c]pyridin-5-yl)-5,6,7,8-tetrahydroquinoline]	1000 to 50000 nM	1000 to 50000 nM
Fc1ccccc1-c1nc2c([nH]1)CN(C1CCc3ccc(Cl)cc3C1)CC2 (centres unmarked) [Example 6, 5-(7-chloro-1,2,3,4-tetrahydronaphthalen-2-yl)-2-(2-fluorophenyl)-4,5,6,7-tetrahydro-3H-imidazo[4,5-c]pyridine]	1000 to 50000 nM	1000 to 50000 nM

Continued, values first:

IC50 [1]	IC50 [2]	Structure (SMILES)
1000 to 50000 nM	1000 to 50000 nM	Clc1cccc2c1CC(N1CCc3nc(-c4ccccn4)[nH]c3C1)CC2 (centres unmarked) [Example 78, 5-(8-chloro-1,2,3,4-tetrahydronaphthalen-2-yl)-2-(pyridin-2-yl)-4,5,6,7-tetrahydro-3H-imidazo[4,5-c]pyridine]
100 to 490 nM	100 to 490 nM	Cn1c(-c2ccccc2Cl)nc2c1CN(C1CCc3cccc(C4CC4)c3C1)CC2 (centres unmarked) [Example 161, 2-(2-chlorophenyl)-5-(8-cyclopropyl-1,2,3,4-tetrahydronaphthalen-2-yl)-3-methyl-4,5,6,7-tetrahydro-3H-imidazo[4,5-c]pyridine]
1000 to 50000 nM	1000 to 50000 nM	COc1cccc2c1CC(N1CCc3nc(-c4ccccc4Cl)n(CCO)c3C1)CC2 (centres unmarked) [Example 130, 2-(2-(2-chlorophenyl)-5-(8-methoxy-1,2,3,4-tetrahydronaphthalen-2-yl)-4,5,6,7-tetrahydro-3H-imidazo[4,5-c]pyridin-3-yl)ethan-1-ol]
< 100 nM	< 100 nM	Clc1ccccc1-c1nc2c([nH]1)CC(N1CCc3cccc(Cl)c3C1)CC2 (centres unmarked) [Example 185, 8-chloro-2-(2-(2-chlorophenyl)-4,5,6,7-tetrahydro-1H-benzo[d]imidazol-6-yl)-1,2,3,4-tetrahydroisoquinoline]
> 30000 nM	> 30000 nM	Fc1cc(F)c2c(c1)CC(N1CCc3nc(-c4ccccc4F)[nH]c3C1)CC2 (centres unmarked) [Example 73, 5-(5,7-difluoro-1,2,3,4-tetrahydronaphthalen-2-yl)-2-(2-fluorophenyl)-4,5,6,7-tetrahydro-3H-imidazo[4,5-c]pyridine]
100 to 490 nM	< 100 nM	Clc1ccccc1-c1nc2c([nH]1)C[C@@H](N1CCc3cccc(Cl)c3C1)CC2 [Example 185-S, (S)-8-chloro-2-(2-(2-chlorophenyl)-4,5,6,7-tetrahydro-1H-benzo[d]imidazol-6-yl)-1,2,3,4-tetrahydroisoquinoline]
1000 to 50000 nM	1000 to 50000 nM	Clc1cccnc1-c1nc2c([nH]1)CN(C1CCc3cccc(Cl)c3C1)CC2 (centres unmarked) [Example 77, 5-(8-chloro-1,2,3,4-tetrahydronaphthalen-2-yl)-2-(3-chloropyridin-.2-yl)-4,5,6,7-tetrahydro-3H-imidazo[4,5-c]pyndine]
< 100 nM	< 100 nM	Cn1c(-c2ccc(C3CC3)cc2Cl)nc2c1CN(C1CCc3ccc(Cl)cc3C1)CC2 (centres unmarked) [Example 163, 5-(7-chloro-1,2,3,4-tetrahydronaphthalen-2-yl)-2-(2-chloro-4-cyclopropylphenyl)-3-methyl-4,5,6,7-tetrahydro-3H-imidazo[4,5-c]pyridine]
1000 to 50000 nM	1000 to 50000 nM	Clc1ccccc1-c1nc2c([nH]1)CN(C1CCc3cc(Br)ccc3C1)CC2 (centres unmarked) [Example 109, 5-(6-bromo-1,2,3,4-tetrahydronaphthalen-2-yl)-2-(2-chlorophenyl)-4,5,6,7-tetrahydro-3H-imidazo[4,5-c]pyridine]
